Test results: patent EP2601963B1, “N-ISOVALEROYL-L-GLUTAMYL-L-TRYPTOPHAN AS AN AGENT INHIBITING THE FORMATION OF ULCERS IN THE STOMACH AND THE DUODENUM” (Obshestvo S Ogranichennoj Otvetstvennostju "CytoNIR", priority 2010, dated 2015)

Experiments:
Format in all cases: in vivo, male Wistar rats
[1] = system: alkaline phosphatase (AP); assay: Indomethacin-induced ulcer model, therapeutic: alkaline phosphatase activity in blood serum; conditions: treatment 5 days after Indomethacin
Method: (§1) Alanine aminotransferase (ALT) and alkaline phosphatase (AP) activity in blood serum was determined with "Vital Development Corporation" kits.
(§2) 2 ml/kg of the ulcerogenic dose of indomethacin equal to 30 mg/kg was administered intraperitoneally. The treatment started 24 hrs. post indomethacin administration and continued for 5 days. The animals in the experimental groups received N-isovaleroyl-L-glutamyl-L-tryptophan or the comparator drug Sucralfate, and the control group received distilled water.

malondialdehyde (MDA) [2] = assay: Indomethacin-induced ulcer model, preventive: malondialdehyde in blood serum
Method: (§3) Intensity of the free radical oxidation was evaluated by the malondialdehyde (MDA) accumulation in blood serum [R.A. Temirbulatov, Ye.I. Seleznev Method for Increasing the Intensity of Free Radical Oxidation in Lipid-Containing Blood Components and its Diagnostic Significance // Labor. Delo, 1981, # 4, p.p. 209 - 211]. The state of the antioxidant systems was evaluated by the superoxide dismutase (SODM) activity [S. Chevari , I. Chaba, Y. Sekei. The Role of Superoxide Dismutase in Cellular Oxidative Processes and Method of its Determination in Biological Materials // Labor. Delo, 1985, # 11, p.p. 678 - 681].
(§4) The efficacy of the course of preventive treatment with the claimed composition was evaluated 24 hrs. post indomethacin administration. The study was conducted as in Example 1.

[3] = Water-immersion stress model: weight of organs
Method: (§5) Intensity of changes caused by stressors in the internal organs of the animals was evaluated by the relative weight changes of the adrenal glands, thymus, and spleen calculated as a ratio of the organ's weight to the body weight of the animal multiplied by 100.

[4] = system: alkaline phosphatase (AP); assay: Water-immersion stress model: alkaline phosphatase activity in blood serum
Method: as §1

malondialdehyde (MDA) [5] = assay: Indomethacin-induced ulcer model, therapeutic: malondialdehyde in blood serum; conditions: for MDA: treatment 5 days after Indomethacin
Method: as §3, §2

[6] = system: superoxide dismutase (SODM); assay: Water-immersion stress model: superoxide dismutase activity in blood serum
Method: as §3

[7] = Indomethacin-induced ulcer model, therapeutic: weight of organs; conditions: treatment 5 days after Indomethacin
Method: as §5, §2

[8] = system: Alanine aminotransferase (ALT); assay: Water-immersion stress model: alanine aminotransferase activity in blood serum
Method: as §1

[9] = system: alkaline phosphatase (AP); assay: Indomethacin-induced ulcer model, preventive: alkaline phosphatase activity in blood serum
Method: as §1, §4

[10] = Indomethacin-induced ulcer model, preventive: weight of organs
Method: as §5, §4

[11] = system: Alanine aminotransferase (ALT); assay: Indomethacin-induced ulcer model, therapeutic: alanine aminotransferase activity in blood serum; conditions: treatment 5 days after Indomethacin
Method: as §1, §2

[12] = system: superoxide dismutase (SODM); assay: Indomethacin-induced ulcer model, preventive: superoxide dismutase activity in blood serum
Method: as §3, §4

malondialdehyde (MDA) [13] = assay: Water-immersion stress model: malondialdehyde in blood serum
Method: as §3

[14] = Indomethacin intoxication, therapeutic: changes in body weight; conditions: Indomethacin 30 mg/kg, Before Indomethacin = 100
Method: as §2
Some loss of weight of the intact animals could be contributed to the 18-hr fasting. […]

[15] = system: Alanine aminotransferase (ALT); assay: Indomethacin-induced ulcer model, preventive: alanine aminotransferase activity in blood serum
Method: as §1, §4

[16] = system: superoxide dismutase (SODM); assay: Indomethacin-induced ulcer model, therapeutic: superoxide dismutase activity in blood serum; conditions: treatment 5 days after Indomethacin
Method: as §3, §2

[17] = blood serum, 0.1 mkg/kg + Indomethacin 20 mg/kg, preventive
[18] = blood serum, 10 mkg/kg + Indomethacin 20 mg/kg, preventive
[19] = preventive administration, indomethacin 20 mg/kg
[20] = 0.1 mkg/kg + Indomethacin 20 mg/kg
[21] = 10 mkg/kg + Indomethacin 20 mg/kg
[22] = 200 mg/kg + Indomethacin 20 mg/kg

Substance: N-isovaleroyl-L-glutamyl-L-tryptophan [VGT preparation]
- AP ([1]; 0.1 mkg/kg): 1357 ± 58 nM/c*L
- AP ([1]; 10.0 mkg/kg): 1368 ± 148 nM/c*L
- MDA (malondialdehyde (MDA) [2]; [17]): 0.124 ± 0.009 OD532
- MDA (malondialdehyde (MDA) [2]; [18]): 0.158 ± 0.030 OD532
- reduced the final LP-MDA product concentration compared to control animals (malondialdehyde (MDA) [2]; [19]): 14%
- Adrenal Glands Rel Wt. ([3]; 0.1 mkg/kg + stress): 0.017 ± 0.001 %
- Adrenal Glands Wt. ([3]; 0.1 mkg/kg + stress): 40.8 ± 1.1 mg
- Spleen Rel Wt. ([3]; 0.1 mkg/kg + stress): 0.37 ± 0.06 %
- Spleen Wt. ([3]; 0.1 mkg/kg + stress): 0.872 ± 0.066 g
- Thymus Rel Wt. ([3]; 0.1 mkg/kg + stress): 0.124 ± 0.010 %
- Thymus Wt. ([3]; 0.1 mkg/kg + stress): 0.307 ± 0.028 g
- reducing adrenal weight compared to that of the control animals ([3]; 0.1 mkg/kg + stress): 16 - 17%
- Adrenal Glands Rel Wt. ([3]; 10.0 mkg/kg + stress): 0.018 ± 0.001 %
- Adrenal Glands Wt. ([3]; 10.0 mkg/kg + stress): 45.2 ± 2.2 mg
- Spleen Rel Wt. ([3]; 10.0 mkg/kg + stress): 0.41 ± 0.03%
- Spleen Wt. ([3]; 10.0 mkg/kg + stress): 0.977 ± 0.082 g
- Thymus Rel Wt. ([3]; 10.0 mkg/kg + stress): 0.154 ± 0.008%
- Thymus Wt. ([3]; 10.0 mkg/kg + stress): 0.350 ± 0.022 g
- lowered the relative weight of the spleen compared to that of the intact animals ([3]; small doses + stress): 24%
- AP ([4]; 0.1 mkg/kg + stress): 1100 ± 54 nM/s-L
- AP ([4]; 10.0 mkg/kg + stress): 1123 ± 55 nM/s-L
- MDA (malondialdehyde (MDA) [5]; blood serum, 0.1 mkg/kg): 0.169 ± 0.012 OD532
- MDA (malondialdehyde (MDA) [5]; blood serum, 10.0 mkg/kg): 0.217 ± 0.030 OD532
- reduced MDA content (malondialdehyde (MDA) [5]; small dose, treatment after Indomethacin): 70%
- SODM ([6]; 0.1 mkg/kg + stress): 2.20 ± 0.09 con. units/ml
- SODM ([6]; 10 mkg/kg + stress): 2.35 ± 0.11 con. units/ml
- Adrenal Glands Rel. wt. ([7]; 0.1 mkg/kg): 0.019 ± 0.002%
- Adrenal Glands Wt. ([7]; 0.1 mkg/kg): 41.8 ± 5.1
- Liver Rel. wt. ([7]; 0.1 mkg/kg): 3.27 ±0.18%
- Liver Wt. ([7]; 0.1 mkg/kg): 7.062 ± 0.411 g
- Spleen Rel. wt. ([7]; 0.1 mkg/kg): 0.48 ± 0.03%
- Spleen Wt. ([7]; 0.1 mkg/kg): 1.061 ± 0.085 g
- Thymus Rel. wt. ([7]; 0.1 mkg/kg): 0.081 ± 0.007%
- Thymus Wt. ([7]; 0.1 mkg/kg): 0.173 ± 0.018 g
- Adrenal Glands Rel. wt. ([7]; 10.0 mkg/kg): 0.022 ± 0.002%
- Adrenal Glands Wt. ([7]; 10.0 mkg/kg): 48.3 ± 2.2
- Liver Rel. wt. ([7]; 10.0 mkg/kg): 3.76 ± 0.020 %
- Liver Wt. ([7]; 10.0 mkg/kg): 8.310 ± 0.426 g
- Spleen Rel. wt. ([7]; 10.0 mkg/kg): 0.56 ± 0.05%
- Spleen Wt. ([7]; 10.0 mkg/kg): 1.233 ± 0.104 g
- Thymus Rel. wt. ([7]; 10.0 mkg/kg): 0.078 ± 0.008%
- Thymus Wt. ([7]; 10.0 mkg/kg): 0.179 ± 0.032 g
- ALT ([8]; 0.1 mkg/kg + stress): 1.55 ± 0.15 mM/hr-L
- ALT ([8]; 10.0 mkg/kg + stress): 1.78 ± 0.08 mM/hr-L
- AP [9, 20]: 1108 ± 91 nM/s-L
- AP [9, 21]: 1180 ± 91 nM/s-L
- Adrenal Glands Rel. wt. [10, 20]: 0.017 ± 0.001%
- Adrenal Glands Wt. [10, 20]: 37.1 ± 1.3 mg
- Liver Rel. wt. [10, 20]: 2.99 ± 0.060%
- Liver Wt. [10, 20]: 6.549 ± 0.282 g
- Spleen Rel. wt. [10, 20]: 0.433 ± 0.041%
- Spleen Wt. [10, 20]: 0.912 ± 0.044 g
- Thymus Rel. wt. [10, 20]: 0.124 ± 0.007 %
- Thymus Wt. [10, 20]: 0.277 ± 0.018 g
- Adrenal Glands Rel. wt. [10, 21]: 0.018 ± 0.001%
- Adrenal Glands Wt. [10, 21]: 38.5 ± 1.4 mg
- Liver Rel. wt. [10, 21]: 3.053 ± 0.065%
- Liver Wt. [10, 21]: 6.770 ± 0.335 g
- Spleen Rel. wt. [10, 21]: 0.434 ± 0.018%
- Spleen Wt. [10, 21]: 0.926 ± 0.060 g
- Thymus Rel. wt. [10, 21]: 0.133 ± 0.009%
- Thymus Wt. [10, 21]: 0.320 ± 0.030 g
- ALT ([11]; 0.1 mkg/kg): 0.75 ± 0.09 mM/h*L
- ALT ([11]; 10.0 mkg/kg): 0.66 ± 0.11 mM/h*L
- SODM [12, 17]: 2.50 ± 0.05 con. units/ml
- SODM [12, 18]: 2.58 ± 0.14 con. units/ml
- increased the activity of SODM compared to control animals [12, 19]: 1.6 times
- MDA (malondialdehyde (MDA) [13]; 0.1 mkg/kg + stress): 0.130 ± 0.019 OD532
- MDA (malondialdehyde (MDA) [13]; 10 mkg/kg + stress): 0.128 ± 0.020 OD532
- Body weight In 5 days ([14]; 0.1 mkg/kg): 84.4 ± 2.3
- Body weight In 5 days ([14]; 10.0 mkg/kg): 84.1 ± 3.0
- ALT [15, 20]: 1.04 ± 0.06 mM/hr-L
- ALT [15, 21]: 1.08 ± 0.06 mM/hr-L
- SODM ([16]; 0.1 mkg/kg): 3.1 ± 0.11 conv. units/ml
- SODM ([16]; 10.0 mkg/kg): 3.06 ± 0.16 conv. units/ml

Substance: aluminum complex of beta-D-fructofuranosyl-alpha-D-glucopyranoside octakis (hydrosulfate) [Sucralfate]
- AP ([1]; 200 mg/kg): 1260 ± 104 nM/c*L
- MDA (malondialdehyde (MDA) [2]; [22]): 0.134 ± 0.024 OD532
- Adrenal Glands Rel Wt. ([3]; 200 mg/kg + stress): 0.017 ± 0.001 %
- Adrenal Glands Wt. ([3]; 200 mg/kg + stress): 41.6 ± 2.7 mg
- Spleen Rel Wt. ([3]; 200 mg/kg + stress): 0.40 ± 0.02%
- Spleen Wt. ([3]; 200 mg/kg + stress): 0.974 ± 0.057 g
- Thymus Rel Wt. ([3]; 200 mg/kg + stress): 0.140 ± 0.007%
- Thymus Wt. ([3]; 200 mg/kg + stress): 0.327 ± 0.016 g
- AP ([4]; 200 mg/kg + stress): 1113 ± 77 nM/s-L
- MDA (malondialdehyde (MDA) [5]; 200 mg/kg): 0.155 ± 0.037 OD532
- SODM ([6]; 200 mg/kg + stress): 2.32 ± 0.11 con. units/ml
- Adrenal Glands Rel. wt. ([7]; 200 mg/kg): 0.023± 0.002%
- Adrenal Glands Wt. ([7]; 200 mg/kg): 50.1 ± 3.2
- Liver Rel. wt. ([7]; 200 mg/kg): 3.23 ± 0.13%
- Liver Wt. ([7]; 200 mg/kg): 7.158 ± 0.330 g
- Spleen Rel. wt. ([7]; 200 mg/kg): 0.57 ± 0.04%
- Spleen Wt. ([7]; 200 mg/kg): 1.260 ± 0.083 g
- Thymus Rel. wt. ([7]; 200 mg/kg): 0.070 ± 0.005 %
- Thymus Wt. ([7]; 200 mg/kg): 0.155 ± 0.011 g
- ALT ([8]; 200 mg/kg + stress): 1.57 ± 0.06 mM/hr-L
- AP [9, 22]: 931 ± 108 nM/s-L
- Adrenal Glands Rel. wt. [10, 22]: 0.017 ± 0.001%
- Liver Rel. wt. [10, 22]: 3.259± 0.049%
- Liver Wt. [10, 22]: 7.702 ± 0.224 g
- Spleen Rel. wt. [10, 22]: 0.490 ± 0.020%
- Spleen Wt. [10, 22]: 1.070 ± 0.041 g
- Thymus Rel. wt. [10, 22]: 0.130 ± 0.009%
- Thymus Wt. [10, 22]: 0.306 ± 0.023 g
- ALT ([11]; 200 mg/kg): 0.69 ± 0.05 mM/h*L
- SODM [12, 22]: 2.68 ± 0.14 con. units/ml
- MDA (malondialdehyde (MDA) [13]; 200 mg/kg + stress): 0.147 ± 0.007 OD532
- Body weight In 5 days ([14]; 200 mg/kg): 86.6 ± 2.5
- ALT [15, 22]: 1.05 ± 0.05 mM/hr-L
- SODM ([16]; 200 mg/kg): 2.66 ± 0.11 conv. units/ml
